- melting point: 122 to 123 °C
Compound: O=C(NCC1CCN(C(=O)OCc2ccccc2)CC1)c1ccc(O)cc1 [Example 1, 4-[(4-Hydroxy-benzoylamino)-methyl]-piperidine-1-carboxylic acid benzyl ester]
